# Experimental data from PubChem BioAssay AID328 (DTP/NCI, 2004).
# Where “and” joins values, the source holds several entries; their conditions need not be identical. Equal values may be shown once. Inconclusive results and toxic doses are left out.
# Tested on: BDF1 mice, P388 leukemia ip, median survival T/C
# Assay: NCI In Vivo Anticancer Drug Screen. Data for tumor model P388 Leukemia (intraperitoneal) in B6D2F1 (BDF1) mice
# Settings: endpoint: median survival time, higher = longer survival
# Method in brief: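 Each value expresses how treatment altered survival: treated-mouse outcome over vehicle-mouse outcome, both groups bearing the transplanted tumour.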
structure (smiles),measurement,setting,value
COC(=O)[C@@]12OC[C@]34[C@H]([C@@H](O)[C@@H]1O)[C@@]1(C)CC(=O)C(O)=C(C)[C@@H]1C[C@H]3OC(=O)[C@H](OC(=O)/C=C(\C)C(C)C)[C@@H]24,T/C,"dose: 0.03 mg/kg/injection, schedule: Q01DX009 (ip), vehicle: saline + alcohol",151 % of control
same,T/C,"dose: 0.03 mg/kg/injection, schedule: Q01DX009 (ip), vehicle: saline",155 % of control
same,T/C,"dose: 0.05 mg/kg/injection, schedule: Q01DX005 (iv), vehicle: saline + alcohol",100 % of control
same,T/C,"dose: 0.05 mg/kg/injection, schedule: Q01DX009 (ip), vehicle: saline + alcohol",150 % of control
same,T/C,"dose: 0.06 mg/kg/injection, schedule: Q01DX009 (ip), vehicle: other",153 % of control
same,T/C,"dose: 0.06 mg/kg/injection, schedule: Q01DX009 (ip), vehicle: saline",170 % of control
same,T/C,"dose: 0.06 mg/kg/injection, schedule: Q01DX009 (sc), vehicle: saline + alcohol",100 % of control
same,T/C,"dose: 0.06 mg/kg/injection, schedule: Q03HX024 (ip), vehicle: other",155 % of control
same,T/C,"dose: 0.06 mg/kg/injection, schedule: Q03HX024 (ip), vehicle: saline + alcohol",152 % of control and 153 % of control
same,T/C,"dose: 0.1 mg/kg/injection, schedule: Q01DX005 (iv), vehicle: saline + alcohol",100 % of control
same,T/C,"dose: 0.1 mg/kg/injection, schedule: Q01DX009 (ip), vehicle: saline + alcohol",158 % of control
same,T/C,"dose: 0.12 mg/kg/injection, schedule: Q01DX009 (ip), vehicle: other",177 % of control
same,T/C,"dose: 0.12 mg/kg/injection, schedule: Q01DX009 (ip), vehicle: saline + alcohol",158 % of control
same,T/C,"dose: 0.12 mg/kg/injection, schedule: Q01DX009 (ip), vehicle: saline with Tween-80",151 % of control
same,T/C,"dose: 0.12 mg/kg/injection, schedule: Q01DX009 (ip), vehicle: saline",180 % of control
same,T/C,"dose: 0.12 mg/kg/injection, schedule: Q03HX024 (ip), vehicle: other",166 % of control
same,T/C,"dose: 0.12 mg/kg/injection, schedule: Q03HX024 (ip), vehicle: saline + alcohol",157 % of control
same,T/C,"dose: 0.12 mg/kg/injection, schedule: Q03HX024 (ip), vehicle: saline with Tween-80",150 % of control
same,T/C,"dose: 0.13 mg/kg/injection, schedule: Q01DX009 (ip), vehicle: saline + alcohol",158 % of control and 164 % of control and 173 % of control
same,T/C,"dose: 0.13 mg/kg/injection, schedule: Q01DX009 (ip), vehicle: saline with Tween-80",161 % of control
same,T/C,"dose: 0.13 mg/kg/injection, schedule: Q01DX009 (sc), vehicle: saline + alcohol",108 % of control
same,T/C,"dose: 0.13 mg/kg/injection, schedule: Q03HX016 (ip), vehicle: saline + alcohol",152 % of control
same,T/C,"dose: 0.13 mg/kg/injection, schedule: Q03HX024 (ip), vehicle: saline + alcohol",159 % of control
same,T/C,"dose: 0.2 mg/kg/injection, schedule: Q01DX005 (iv), vehicle: saline + alcohol",100 % of control
same,T/C,"dose: 0.2 mg/kg/injection, schedule: Q01DX009 (ip), vehicle: saline + alcohol",173 % of control
same,T/C,"dose: 0.25 mg/kg/injection, schedule: Q01DX009 (ip), vehicle: other",171 % of control
same,T/C,"dose: 0.25 mg/kg/injection, schedule: Q01DX009 (ip), vehicle: saline with Tween-80",183 % of control
same,T/C,"dose: 0.25 mg/kg/injection, schedule: Q01DX009 (sc), vehicle: saline + alcohol",108 % of control
same,T/C,"dose: 0.25 mg/kg/injection, schedule: Q03HX016 (ip), vehicle: saline + alcohol",165 % of control
same,T/C,"dose: 0.25 mg/kg/injection, schedule: Q03HX024 (ip), vehicle: saline with Tween-80",169 % of control
same,T/C,"dose: 0.25 mg/kg/injection, schedule: Q04DX003 (ip), vehicle: saline + alcohol",122 % of control
same,T/C,"dose: 0.25 mg/kg/injection, schedule: Q04DX003 (ip), vehicle: saline with Tween-80",120 % of control
same,T/C,"dose: 0.4 mg/kg/injection, schedule: Q01DX005 (iv), vehicle: saline + alcohol",107 % of control
same,T/C,"dose: 0.4 mg/kg/injection, schedule: Q01DX009 (ip), vehicle: saline + alcohol",185 % of control
same,T/C,"dose: 0.44 mg/kg/injection, schedule: Q01DX009 (ip), vehicle: saline with Tween-80",186 % of control
same,T/C,"dose: 0.5 mg/kg/injection, schedule: Q01DX009 (ip), vehicle: other",177 % of control
same,T/C,"dose: 0.5 mg/kg/injection, schedule: Q01DX009 (ip), vehicle: saline with Tween-80",175 % of control
same,T/C,"dose: 0.5 mg/kg/injection, schedule: Q01DX009 (ip), vehicle: saline",150 % of control
same,T/C,"dose: 0.5 mg/kg/injection, schedule: Q01DX009 (oral), vehicle: saline + alcohol",101 % of control and 110 % of control
same,T/C,"dose: 0.5 mg/kg/injection, schedule: Q01DX009 (sc), vehicle: saline + alcohol",116 % of control
same,T/C,"dose: 0.5 mg/kg/injection, schedule: Q04DX003 (ip), vehicle: saline + alcohol",120 % of control
same,T/C,"dose: 0.5 mg/kg/injection, schedule: Q04DX003 (ip), vehicle: saline with Tween-80",117 % of control
same,T/C,"dose: 0.5 mg/kg/injection, schedule: Q08DX002 (ip), vehicle: saline + alcohol",109 % of control
same,T/C,"dose: 0.5 mg/kg/injection, schedule: Q08DX002 (ip), vehicle: saline with Tween-80",116 % of control
same,T/C,"dose: 0.65 mg/kg/injection, schedule: Q04DX003 (ip), vehicle: saline + alcohol",123 % of control
same,T/C,"dose: 0.67 mg/kg/injection, schedule: Q01DX009 (ip), vehicle: saline with Tween-80",169 % of control
same,T/C,"dose: 0.8 mg/kg/injection, schedule: Q01DX005 (ip), vehicle: saline + alcohol",164 % of control
same,T/C,"dose: 0.8 mg/kg/injection, schedule: Q01DX005 (iv), vehicle: saline + alcohol",106 % of control and 119 % of control
same,T/C,"dose: 1.0 mg/kg/injection, schedule: Q01DX001 (ip), vehicle: saline + alcohol",107 % of control
same,T/C,"dose: 1.0 mg/kg/injection, schedule: Q01DX001 (ip), vehicle: saline with Tween-80",112 % of control
same,T/C,"dose: 1.0 mg/kg/injection, schedule: Q01DX001 (oral), vehicle: saline + alcohol",100 % of control and 101 % of control
same,T/C,"dose: 1.0 mg/kg/injection, schedule: Q01DX001 (sc), vehicle: saline + alcohol",114 % of control
same,T/C,"dose: 1.0 mg/kg/injection, schedule: Q01DX009 (ip), vehicle: saline",166 % of control
same,T/C,"dose: 1.0 mg/kg/injection, schedule: Q01DX009 (oral), vehicle: saline + alcohol",105 % of control and 107 % of control
same,T/C,"dose: 1.0 mg/kg/injection, schedule: Q04DX003 (ip), vehicle: saline + alcohol",123 % of control
same,T/C,"dose: 1.0 mg/kg/injection, schedule: Q04DX003 (ip), vehicle: saline with Tween-80",123 % of control
same,T/C,"dose: 1.0 mg/kg/injection, schedule: Q08DX002 (ip), vehicle: saline + alcohol",115 % of control
same,T/C,"dose: 1.0 mg/kg/injection, schedule: Q08DX002 (ip), vehicle: saline with Tween-80",99 % of control
same,T/C,"dose: 1.08 mg/kg/injection, schedule: Q04DX003 (ip), vehicle: saline + alcohol",123 % of control
same,T/C,"dose: 1.5 mg/kg/injection, schedule: Q01DX009 (ip), vehicle: saline with Tween-80",186 % of control
same,T/C,"dose: 1.6 mg/kg/injection, schedule: Q01DX005 (ip), vehicle: saline + alcohol",182 % of control
same,T/C,"dose: 1.8 mg/kg/injection, schedule: Q04DX003 (ip), vehicle: saline + alcohol",110 % of control and 123 % of control
same,T/C,"dose: 2.0 mg/kg/injection, schedule: Q01DX001 (ip), vehicle: saline + alcohol",106 % of control
same,T/C,"dose: 2.0 mg/kg/injection, schedule: Q01DX001 (ip), vehicle: saline with Tween-80",112 % of control
same,T/C,"dose: 2.0 mg/kg/injection, schedule: Q01DX001 (oral), vehicle: saline + alcohol",99 % of control and 101 % of control
same,T/C,"dose: 2.0 mg/kg/injection, schedule: Q01DX001 (sc), vehicle: saline + alcohol",113 % of control
same,T/C,"dose: 2.0 mg/kg/injection, schedule: Q01DX009 (ip), vehicle: saline with Tween-80",97 % of control
same,T/C,"dose: 2.0 mg/kg/injection, schedule: Q01DX009 (oral), vehicle: saline + alcohol",96 % of control and 111 % of control
same,T/C,"dose: 2.0 mg/kg/injection, schedule: Q01DX009 (sc), vehicle: saline + alcohol",99 % of control
same,T/C,"dose: 2.0 mg/kg/injection, schedule: Q08DX002 (ip), vehicle: saline + alcohol",99 % of control
same,T/C,"dose: 2.0 mg/kg/injection, schedule: Q08DX002 (ip), vehicle: saline with Tween-80",91 % of control
same,T/C,"dose: 3.2 mg/kg/injection, schedule: Q01DX005 (iv), vehicle: saline + alcohol",110 % of control
same,T/C,"dose: 4.0 mg/kg/injection, schedule: Q01DX001 (oral), vehicle: saline + alcohol",101 % of control and 105 % of control
same,T/C,"dose: 4.0 mg/kg/injection, schedule: Q01DX009 (oral), vehicle: saline + alcohol",97 % of control and 115 % of control
same,T/C,"dose: 8.0 mg/kg/injection, schedule: Q01DX001 (oral), vehicle: saline + alcohol",98 % of control and 99 % of control
same,T/C,"dose: 45.0 micrograms/kg/injection, schedule: Q01DX009 (ip), vehicle: saline + alcohol",155 % of control
same,T/C,"dose: 90.0 micrograms/kg/injection, schedule: Q01DX009 (ip), vehicle: saline + alcohol",180 % of control
same,T/C,"dose: 177.0 micrograms/kg/injection, schedule: Q01DX009 (ip), vehicle: saline + alcohol",190 % of control
same,T/C,"dose: 389.0 micrograms/kg/injection, schedule: Q01DX004 (ip), vehicle: saline + alcohol",159 % of control
same,T/C,"dose: 400.0 micrograms/kg/injection, schedule: Q01DX009 (ip), vehicle: saline + alcohol",185 % of control
same,T/C,"dose: 432.0 micrograms/kg/injection, schedule: Q01DX009 (ip), vehicle: saline + alcohol",180 % of control and 181 % of control
same,T/C,"dose: 720.0 micrograms/kg/injection, schedule: Q01DX009 (ip), vehicle: saline + alcohol",182 % of control
same,T/C,"dose: 1200.0 micrograms/kg/injection, schedule: Q01DX009 (ip), vehicle: saline + alcohol",179 % of control
same,T/C,"dose: 2000.0 micrograms/kg/injection, schedule: Q01DX009 (ip), vehicle: saline + alcohol",189 % of control
